Laboratory results published in patent publication US20120157492A1, “ANTIBIOTIC DRUG” (priority 2008, published 2012).
Values after ≈ are worked out from the molar mass of the structure shown. Where two headings read alike, the source gives them in different places.

Columns and labels:
[1] = system: MRSA-CIP (R): Clinical isolate of MRSA-ciprofloxacin resistant strain; assay: MIC by broth microdilution, ciprofloxacin-resistant MRSA; assay type: cell-based, S. aureus; settings: Staphylococcus aureus
Description: (§1) Minimum inhibitory concentrations (MICs) were determined by the Broth microdilution method following the guidelines of the Clinical and Laboratory Standards Institute (CLSI). See, e.g., “Methods for Dilution Antimicrobial Susceptibility Tests for Bacterial That Grow Aerobically,” CLSI 2006, Approved standard-7th Ed. M7-A7; and “Performance standards for Antimicrobial Susceptibility Testing,” CLSI 2007, 17th Informational Supplement, M100-S17. Note that since there is no CLSI recommended broth microdilution (BMD) method for N. gonorrhoeae, the BMD method recommended for N. meningitis was used.
(§2) MICs were determined using the broth microdilution method.

[2] = system: MRSA-CIP (S): Clinical isolate of MRSA-ciprofloxacin sensitive strain; assay: MIC by broth microdilution, ciprofloxacin-sensitive MRSA; assay type: cell-based; settings: Staphylococcus aureus
Description: as §1, §2

[3] = system: S. pneumo-Levo (R): Clinical isolate of S. pnemoniae Levofloxacin resistant strains; assay: MIC by broth microdilution, levofloxacin-resistant S. pneumoniae; assay type: cell-based; settings: Streptococcus pneumoniae
Description: as §1, §2

[4] = system: S. pneumo-Levo (S): Clinical isolate of S. pnemoniae Levofloxacin sensitive strains; assay: MIC by broth microdilution, levofloxacin-sensitive S. pneumoniae; assay type: cell-based; settings: Streptococcus pneumoniae
Description: as §1, §2

[5] = system: 8 ATCC reference strains and 10 clinical strains (E. coli, P. aeruginosa, S. aureus, E. faecalis, E. faecium, S. pneumoniae, H. influenzae, N. gonorrhoeae); assay: Inhibition of bacteria, MIC by broth microdilution (CLSI); assay type: cell-based
Description: Minimum inhibitory concentrations (MICs) were determined by the Broth microdilution method following the guidelines of the Clinical and Laboratory Standards Institute (CLSI). See, e.g., “Methods for Dilution Antimicrobial Susceptibility Tests for Bacterial That Grow Aerobically,” CLSI 2006, Approved standard-7th Ed. M7-A7; and “Performance standards for Antimicrobial Susceptibility Testing,” CLSI 2007, 17th Informational Supplement, M100-S17. Note that since there is no CLSI recommended broth microdilution (BMD) method for N. gonorrhoeae, the BMD method recommended for N. meningitis was used. Each of the three compounds was dissolved in water before sterile filtration to prepare stock solutions. The stock solutions were stored at −20° C. in aliquots. […] The 2× stock was dispensed at 50 μl per well into the 96-well microtitre plates. The plates were either used fresh or stored at −80° C. before use. To conduct the test, an aliquot of the frozen bacterial isolates was subcultured onto sheep blood agar for all species except that H. influenzae and N. gonorrhoeae were subculuted on chocolate plates. All plate media were purchased from BBL (Becton Dickinson Microbiology System, Cockeysville, Md.). The day before the antimicrobial susceptibility testing, all bacteria were sub-cultured again to obtain fresh starting cultures. […]

[6] = Pharmacokinetic study in rats (IV and PO); assay type: in vivo; settings: male, Sprague-Dawley, plasma, rat; for half-life: read-out: terminal half-life (t1/2) (converted); for bioavailability: oral, read-out: oral bioavailability (% F)
Description: Each of the malic acid salts of Compound 1 and Compound 1′ was dissolved in 0.7% lactic acid and 3% dextrose in water at a pH about 4.5 and 2.5% L-glutamic acid in water at a pH about 5.4 to provide solutions used in this pharmacokinetic study. Male Sprague-Dawley rats (BioLASCO Taiwan Co., Ltd., Taipei, Taiwan) weighing 300-400 g were surgically implanted with polyethylene (PE-50) cannula in the jugular vein for blood sampling while under pentobarbital anesthesia the day before the in-life phase. The rats were treated with a Compound 1 or Compound 1′ solution via intravenous injection (IV) at a dose of 2.5 mg/kg (N=3) or by oral gavage (PO) at a dose of 5 mg/kg (N=4). Dose levels were based on the free base form of the compounds. For PO study, the rats were fasted overnight with water ad libitum, and then dosed the next day. Serial blood samples were collected from animals pre-dose, at 5, 10 (IV only), 15, and 30 min, and at 1, 2, 4, 6, 8, 12, and 24 hours post-dose and heparinized plasma was recovered after centrifugation. Concentrations of the test compound in blood plasma were determined by liquid chromatography-mass spectrometry analysis (MDS SCIEX, API 3000, Applied Biosystems, CA, USA) with a lower limit of quantitation of 2 ng/mL. Standard pharmacokinetic parameters were assessed by non-compartmental analysis using WinNonlin (Version 4.0, Pharsight, CA, USA). The area under the concentration vs. time curve from the time of dosing to infinity (AUC(0-inf)) was calculated by the linear trapezoidal rule. Oral bioavailability (% F) was calculated from the dose-normalized ratio of plasma exposure following oral administration to the intravenous plasma exposure in the rats by the following equation: % F=(AUCpo/AUCiv)×(Div/Dpo)×100% where D is the dose and AUC is the area-under-the-plasma-concentration-time-curve from 0 to infinity.

Compound | MIC50 [1] [µg/mL] | MIC90 [1] [µg/mL] | MIC50 [2] [µg/mL] | MIC90 [2] [µg/mL] | MIC50 [3] [µg/mL] | MIC90 [3] [µg/mL] | MIC50 [4] [µg/mL] | MIC90 [4] [µg/mL] | MICs against the tested bacterial strains, compared with ciprofloxacin [5] | efficacy in inhibiting bacteria compared to malic acid salt of Compound 1′ [5] | AUC(0-inf) ([6]; IV injection, 2.5 mg/kg) [ng·h/mL] | half-life ([6]; IV injection, 2.5 mg/kg) [h] | AUC(0-inf) ([6]; PO, 5 mg/kg) [ng·h/mL] | Cmax ([6]; PO, 5 mg/kg, read-out: maximum of concentration (Cmax)) [ng/mL] | half-life ([6]; PO, 5 mg/kg) [h] | Tmax ([6]; PO, 5 mg/kg, read-out: time at the maximum of concentration (Tmax)) [h] | bioavailability ([6]; 5 mg/kg) [%]
COc1c(N2C[C@H](C)C[C@H](N)C2)ccc2c(=O)c(C(=O)O)cn(C3CC3)c12 [Compound 1, 7-((3S,5R)-3-amino-5-methylpiperidin-1-yl)-1-cyclopropyl-8-methoxy-4-oxo-1,4-dihydroquinoline-3-carboxylic acid] | 1 (≈ 2.69 µM) | 1 (≈ 2.69 µM) | 0.03 (≈ 0.0808 µM) | 0.06 (≈ 0.162 µM) | 0.25 (≈ 0.673 µM) | 1 (≈ 2.69 µM) | 0.03 (≈ 0.0808 µM) | 0.06 (≈ 0.162 µM) | low MICs comparable with, or even lower than, that of ciprofloxacin | more efficacious in inhibiting in some S. aureus, H. influenzae, and P. aeruginosa stains | 1530 ± 66 | 2.47 ± 0.801 | 1400 ± 464 | 622 ± 170 | 3.58 ± 1.7 | 0.25 | ~45.9
COc1c(N2C[C@@H](C)C[C@H](N)C2)ccc2c(=O)c(C(=O)O)cn(C3CC3)c12 [Compound 1′, reference compound] | 1 (≈ 2.69 µM) | 2 (≈ 5.38 µM) | 0.03 (≈ 0.0808 µM) | 0.06 (≈ 0.162 µM) | 0.5 (≈ 1.35 µM) | 2 (≈ 5.38 µM) | 0.06 (≈ 0.162 µM) | 0.06 (≈ 0.162 µM) |  |  |  |  |  |  |  |  | 13.2 ± 3.3
C[C@H]1COc2c(N3CCN(C)CC3)c(F)cc3c(=O)c(C(=O)O)cn1c23 [Levo, Levofloxacin] |  |  |  |  | > 128 |  | 16 (≈ 44.3 µM) |  |  |  |  |  |  |  |  |  | 
